Values quoted from earlier work in patent publication US20070010756A1 (priority 2005, published 2007).

System: patients
Details: in vivo

CC(C)c1cccc(C(C)C)c1O [propofol]
BIS value at which 50 percent of the patients had lost consciousness (95 percent confidence interval): 61 (59-62) | Response Entropy (RE) value at which 50 percent of the patients had lost consciousness (95 percent confidence interval): 70 (68-72) | State Entropy (SE) value at which 50 percent of the patients had lost consciousness (95 percent confidence interval): 64 (62-66)
